Measurements published in patent publication US12692249B2, “WDR5 inhibitors and modulators” (Vanderbilt University, priority 2019, dated 2026).

How the values were obtained:
WDR5 = WDR5 (Homo sapiens, UniProt P61964); assay: TR-FRET competition binding assay, displacement of 10mer-Thr-FAM MLL peptide probe from His-tagged WDR5; details: WDR5-His tag (residues 24-334) 2 nM; 10mer-Thr-FAM 150 nM; 60 min, room temperature; read-out: Ki for Inhibition of WDR5 by TR-FRET assay
Description: Time Resolved-Fluorescence Energy Transfer Competition Assay […] Excess 10mer-Thr-FAM probe was utilized with His-tagged WDR5 in conjunction with a commercial anti-His antibody containing a Terbium label. The LanthaScreenTM Elite Tb-anti-HIS Antibody from ThermoFisher Scientific was used for this purpose. […] The 10mer-Thr-FAM probe when bound to WDR5 will undergo a FRET interaction with the Tb-anti-HIS and emit at 520 nm. […] WDR[…] 10[…] used at 150 nM. […] A source plate is prepared using an Echo Liquid Handler, which distributes the compounds to the assay plate (white, flat-bottom; OptiPlate) in a 10-point, 5-fold dilution schemes with a top concentration of 5 μM, in a final volume of 20 μL. […] The final DMSO concentration in each well of the assay plate is 1% or lower. The plate is covered, shielded from light, and incubated for 60 minutes at room temperature with rocking. 10mer-Thr-FAM and Anti-His terbium antibody fluorescence is then measured on a Biotek Cytation 3 at excitation wavelength of 340 nm, and emission wavelengths of 495 nm and 520 nm. […] TR-FRET signal is plotted and IC50 and Ki values are calculated according to the formula of Wang Z. FEBS Lett (1996) 3, 245. Ki=[I]50/([L]50/Kd+[P]0/Kd+1) where [I]50 is the concentration of the free inhibitor at 50% inhibition, [L]50 is the concentration of the free labeled ligand at 50% inhibition, [P]0 is the concentration of the free protein at 0% inhibition, Kd represents the dissociation constant of the FITC-MLL or 10mer-Thr-FAM probe for WDR5. Total fluorescence is also measured, to rule out compounds that are inherently fluorescent or able to act as quenchers in the assay. TR-FRET Binding Assay

[1] = system: MV4:11 human cancer cell lines; assay: Cellular viability / anti-proliferative assay, CellTiter-Glo, 5 day protocol; type: cell-based; details: Homo sapiens, MV4-11, 120 h, MV4:11 cells; 5 day incubation; CellTiter-Glo; mean of at least two replicates; read-out: GI50 on cellular proliferation of MV4:11 human cancer cell lines
Procedure, shortened: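 MV-4-11 cells in IMDM with 10% FBS, 200 cells/well, exposed 5 days to 22 two-fold dilutions from 30 μM, final DMSO 0.3%. Viability read by CellTiter-Glo luminescence; GI50 from sigmoidal dose-response fit, mean of at least two replicates.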

Ki (WDR5) | GI50 [1] | SMILES
< 0.02 nM | 23 nM | COc1ccc2c(Cl)ncc(N3CCc4c(cc(Cn5ccnc5)cc4-c4cn(C)nc4C(F)(F)F)C3=O)c2c1 [Example 21, 7-((1H-Imidazol-1-yl)methyl)-1′-chloro-6′-methoxy-5-(1-methyl-3-(trifluoromethyl)-1H-pyrazol-4-yl)-3,4-dihydro-1H-[2,4′-biisoquinolin]-1-one]
< 0.02 nM | 210 nM | COc1ccc(N2CCc3c(cc(Cn4ccnc4)cc3-c3cn(C)nc3C(F)(F)F)C2=O)c2cc(C)cnc12 [Example 23, 7-((1H-Imidazol-1-yl)methyl)-2-(8-methoxy-3-methylquinolin-5-yl)-5-(1-methyl-3-(trifluoromethyl)-1H-pyrazol-4-yl)-3,4-dihydroisoquinolin-1(2H)-one]
0.087 nM | 369 nM | Cc1cc2c(N3CCc4c(cc(Cn5ccnc5)cc4-c4cn(C)nc4C(F)(F)F)C3=O)cccc2n1C [Example 26, 7-((1H-Imidazol-1-yl)methyl)-2-(1,2-dimethyl-1H-indol-4-yl)-5-(1-methyl-3-(trifluoromethyl)-1H-pyrazol-4-yl)-3,4-dihydroisoquinolin-1(2H)-one]
4.6 nM | > 30000 nM | Cc1nc2cccc(N3CCc4c(cc(Cn5ccnc5)cc4-c4cn(C)nc4C(F)(F)F)C3=O)c2o1 [Example 27, 7-((1H-Imidazol-1-yl)methyl)-5-(1-methyl-3-(trifluoromethyl)-1H-pyrazol-4-yl)-2-(2-methylbenzo[d]oxazol-7-yl)-3,4-dihydroisoquinolin-1(2H)-one]
0.032 nM | 281 nM | Cc1cc2c(N3CCc4c(cc(Cn5ccnc5)cc4-c4cn(C)nc4C(F)(F)F)C3=O)ccnc2n1C [Example 28, 7-((1H-Imidazol-1-yl)methyl)-2-(1,2-dimethyl-1H-pyrrolo[2,3-b]pyridin-4-yl)-5-(1-methyl-3-(trifluoromethyl)-1H-pyrazol-4-yl)-3,4-dihydroisoquinolin-1(2H)-one]
< 0.02 nM | 65 nM | COc1cc(Br)c2nccc(N3CCc4c(cc(Cn5ccnc5)cc4-c4cn(C)nc4C(F)(F)F)C3=O)c2c1 [Example 29, 7-((1H-Imidazol-1-yl)methyl)-2-(8-bromo-6-methoxyquinolin-4-yl)-5-(1-methyl-3-(trifluoromethyl)-1H-pyrazol-4-yl)-3,4-dihydroisoquinolin-1(2H)-one]
< 0.02 nM | 76 nM | CCc1cc(N(C)C)c2nccc(N3CCc4c(cc(Cn5ccnc5)cc4-c4cn(C)nc4C(F)(F)F)C3=O)c2c1 [Example 35, 7-((1H-Imidazol-1-yl)methyl)-2-(8-(dimethylamino)-6-ethylquinolin-4-yl)-5-(1-methyl-3-(trifluoromethyl)-1H-pyrazol-4-yl)-3,4-dihydroisoquinolin-1(2H)-one]
< 0.02 nM | 20 nM | CNC(=O)c1cc(OC)cc2c(N3CCc4c(cc(Cn5ccnc5)cc4-c4cn(C)nc4C(F)(F)F)C3=O)ccnc12 [Example 42, 4-(7-((1H-Imidazol-1-yl)methyl)-5-(1-methyl-3-(trifluoromethyl)-1H-pyrazol-4-yl)-1-oxo-3,4-dihydroisoquinolin-2(1H)-yl)-6-methoxy-N-methylquinoline-8-carboxamide]

More lines, now with the values behind:

SMILES | Ki (WDR5) | GI50 [1]
COc1ccc2c(OC)ncc(N3CCc4c(cc(Cn5ccnc5)cc4-c4cn(C)nc4C(F)(F)F)C3=O)c2c1 [Example 22, 7-((1H-imidazol-1-yl)methyl)-1′,6′-dimethoxy-5-(1-methyl-3-(trifluoromethyl)-1H-pyrazol-4-yl)-3,4-dihydro-1H-[2,4′-biisoquinolin]-one] | 0.029 nM | 111 nM
Cc1cc(Cl)c2cncc(N3CCc4c(cc(Cn5ccnc5)cc4-c4cn(C)nc4C(F)(F)F)C3=O)c2c1 [Example 24, 7-((1H-Imidazol-1-yl)methyl)-8′-chloro-6′-methyl-5-(1-methyl-3-(trifluoromethyl)-1H-pyrazol-4-yl)-3,4-dihydro-1H-[2,4′-biisoquinolin]-1-one] | 0.026 nM | 92 nM
COc1ccc2ncnc(N3CCc4c(cc(Cn5ccnc5)cc4-c4cn(C)nc4C(F)(F)F)C3=O)c2c1 [Example 25, 7-((1H-Imidazol-1-yl)methyl)-2-(6-methoxyquinazolin-4-yl)-5-(1-methyl-3-(trifluoromethyl)-1H-pyrazol-4-yl)-3,4-dihydroisoquinolin-1(2)-one] | 0.061 nM | 70 nM
COc1cc(N2CCOCC2)c2nccc(N3CCc4c(cc(Cn5ccnc5)cc4-c4cn(C)nc4C(F)(F)F)C3=O)c2c1 [Example 30, 7-((1H-Imidazol-1-yl)methyl)-2-(6-methoxy-8-morpholinoquinolin-4-yl)-5-(1-methyl-3-(trifluoromethyl)-1H-pyrazol-4-yl)-3,4-dihydroisoquinolin-1(2H)-one] | < 0.02 nM | < 20 nM
COc1cc(N2CCN(C)CC2)c2nccc(N3CCc4c(cc(Cn5ccnc5)cc4-c4cn(C)nc4C(F)(F)F)C3=O)c2c1 [Example 31, 7-((1H-Imidazol-1-yl)methyl)-2-(6-methoxy-8-(4-methylpiperazin-1-yl)quinolin-4-yl)-5-(1-methyl-3-(trifluoromethyl)-1H-pyrazol-4-yl)-3,4-dihydroisoquinolin-1(2H)-one] | < 0.02 nM | < 20 nM
CCc1cc(N2CCOCC2)c2nccc(N3CCc4c(cc(Cn5ccnc5)cc4-c4cn(C)nc4C(F)(F)F)C3=O)c2c1 [Example 36, 7-((1H-Imidazol-1-yl)methyl)-2-(6-ethyl-8-morpholinoquinolin-4-yl)-5-(1-methyl-3-(trifluoromethyl)-1H-pyrazol-4-yl)-3,4-dihydroisoquinolin-1(2H)-one] | < 0.02 nM | 23 nM
CCc1cc(N2CCN(C)CC2)c2nccc(N3CCc4c(cc(Cn5ccnc5)cc4-c4cn(C)nc4C(F)(F)F)C3=O)c2c1 [Example 37, 7-((1H-Imidazol-1-yl)methyl)-2-(6-ethyl-8-(4-methylpiperazin-1-yl)quinolin-4-yl)-5-(1-methyl-3-(trifluoromethyl)-1H-pyrazol-4-yl)-3,4-dihydroisoquinolin-1(2H)-one] | < 0.02 nM | < 20 nM
CCc1cc(N(C)CCN(C)C)c2nccc(N3CCc4c(cc(Cn5ccnc5)cc4-c4cn(C)nc4C(F)(F)F)C3=O)c2c1 [Example 38, 7-((1H-Imidazol-1-yl)methyl)-2-(8-((2-(dimethylamino)ethyl)(methyl)amino)-6-ethylquinolin-4-yl)-5-(1-methyl-3-(trifluoromethyl)-1H-pyrazol-4-yl)-3,4-dihydroisoquinolin-1(2H)-one] | < 0.02 nM | 31 nM
COc1cc(C(=O)N2CCCC2)c2nccc(N3CCc4c(cc(Cn5ccnc5)cc4-c4cn(C)nc4C(F)(F)F)C3=O)c2c1 [Example 44, 7-((1H-Imidazol-1-yl)methyl)-2-(6-methoxy-8-(pyrrolidine-1-carbonyl)quinolin-4-yl)-5-(1-methyl-3-(trifluoromethyl)-1H-pyrazol-4-yl)-3,4-dihydroisoquinolin-1(2H)-one] | < 0.02 nM | 353 nM
COCCNC(=O)c1cc(OC)cc2c(N3CCc4c(cc(Cn5ccnc5)cc4-c4cn(C)nc4C(F)(F)F)C3=O)ccnc12 [Example 49, 4-(7-((1H-Imidazol-1-yl)methyl)-5-(1-methyl-3-(trifluoromethyl)-1H-pyrazol-4-yl)-1-oxo-3,4-dihydroisoquinolin-2(1H)-yl)-6-methoxy-N-(2-methoxyethyl)quinoline-8-carboxamide] | < 0.02 nM | 34 nM
CCn1cc(-c2cc(Cn3ccnc3C)cc3c2CCN(c2cccc4ncc(OC)cc24)C3=O)c(C(F)(F)F)n1 [Example 50, 5-(1-Ethyl-3-(trifluoromethyl)-1H-pyrazol-4-yl)-2-(3-methoxyquinolin-5-yl)-7-((2-methyl-1H-imidazol-1-yl)methyl)-3,4-dihydroisoquinolin-1(2H)-one] | < 0.02 nM | 22 nM
CCn1cc(-c2cc(Cn3ccnc3C)cc3c2CCN(c2cc(C)nc4ccc(OC)cc24)C3=O)c(C(F)(F)F)n1 [Example 51, 5-(1-Ethyl-3-(trifluoromethyl)-1H-pyrazol-4-yl)-2-(6-methoxy-2-methylquinolin-4-yl)-7-((2-methyl-1H-imidazol-1-yl)methyl)-3,4-dihydroisoquinolin-1(2H)-one] | < 0.02 nM | < 20 nM
CCn1cc(-c2cc(Cn3ccnc3)cc3c2CCN(c2cccc4ncc(OC)cc24)C3=O)c(C(F)(F)F)n1 [Example 52, 7-((1H-Imidazol-1-yl)methyl)-5-(1-ethyl-3-(trifluoromethyl)-1H-pyrazol-4-yl)-2-(3-methoxyquinolin-5-yl)-3,4-dihydroisoquinolin-1(2H)-one] | 0.028 nM | 62 nM
